The text below walks through data of patent publication US11337964B2, “Isoindoline derivative, pharmaceutical composition and use thereof” (Kangpu Biopharmaceuticals, Ltd., priority 2017, dated 2022).

In one series the target is T1, PDE4D3 (Homo sapiens, UniProt Q08499).
T1 construct: purchased BPS 60046
Nature of the series: PDE4 activity inhibition assay, PDE4D3. It is filed as biochemical. The note with it: FAM-cAMP substrate, 30 minutes at room temperature.

The target in a further series is T2, PDE4B1 (Homo sapiens, UniProt Q07343).
T2 construct: purchased BPS 60041
T2 sequence (Q07343 whole entry): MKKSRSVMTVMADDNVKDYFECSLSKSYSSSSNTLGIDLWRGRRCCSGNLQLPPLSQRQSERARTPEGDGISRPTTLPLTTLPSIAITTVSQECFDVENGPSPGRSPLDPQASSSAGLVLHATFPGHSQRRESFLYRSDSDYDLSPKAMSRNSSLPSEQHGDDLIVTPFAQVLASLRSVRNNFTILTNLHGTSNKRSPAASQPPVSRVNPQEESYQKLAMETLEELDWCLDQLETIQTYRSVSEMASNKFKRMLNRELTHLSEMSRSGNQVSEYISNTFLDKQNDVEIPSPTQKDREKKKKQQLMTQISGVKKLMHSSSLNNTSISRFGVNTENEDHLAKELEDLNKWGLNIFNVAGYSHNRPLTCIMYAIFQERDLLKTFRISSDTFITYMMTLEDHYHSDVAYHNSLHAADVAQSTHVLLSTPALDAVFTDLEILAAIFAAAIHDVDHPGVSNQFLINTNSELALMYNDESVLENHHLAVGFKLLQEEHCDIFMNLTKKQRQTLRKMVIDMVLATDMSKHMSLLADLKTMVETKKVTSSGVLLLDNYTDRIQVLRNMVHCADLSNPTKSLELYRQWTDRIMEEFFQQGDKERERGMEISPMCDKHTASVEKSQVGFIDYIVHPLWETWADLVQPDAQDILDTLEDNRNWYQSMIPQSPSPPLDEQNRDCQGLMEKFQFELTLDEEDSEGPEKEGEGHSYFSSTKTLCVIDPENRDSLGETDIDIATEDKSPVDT
As to the kind of experiment: PDE4 activity inhibition assay, PDE4B1. The following applies: FAM-cAMP substrate, 30 minutes at room temperature. It is filed as biochemical.

Series [1] is described as follows: PK parameter test in SD rats. The note with it: male SD rats; for Tmax / AUC / half-life: Sprague-Dawley, rat, plasma; for F: po 10 mg/kg vs iv 3 mg/kg. It is filed as in vivo, Sprague-Dawley rats. The procedure: Test compounds were administered intravenously or intragastrically singly to SD rats.
Blood samples were collected at different time points. LC-MS/MS was used to determine the concentration of the test compounds in rat plasma after administration of tested compounds and calculate the relevant PK parameters.
The test compounds are calculated based on free radicals and are converted only by purity.
A suitable amount of the test compound was added 5% DMSO+95% HP-beta-CD (20%) to prepare a solution of 0.6 mg/mL for intravenous administration.
A suitable amount of the test compound was added 5% DMSO+95% HP-beta-CD (20%) to prepare a solution of 1 mg/mL for intragastrical administration.
Male Sprague-Dawley rats were purchased from Shanghai Xipuer-Bikai Laboratory Animal Co., Ltd. There were 3 rats in each group. One group was used as control to collect blank plasma. The other groups were given each test compound by intravenous injection (the dose was 3 mg/kg) or intragastrical administration (the dose was 10 mg/kg). Heparin sodium was used for anticoagulation. Analyze the concentration of the test compound in the blood sample.
Abrosia for 10-14 hours before oral administration of the test compounds and resume feeding 4 hours after oral administration of the test compounds.
The time points of blood sample collection were: intravenous injection: before administration and at 0.083 hour, 0.25 hour, 0.5 hour, 1 hour, 2 hour, 4 hour, 6 hour, 8 hour, 24 hour after administration; oral administration: before administration and at 0.25 hour, 0.5 hour, 1 hour, 2 hour, 4 hour, 6 hour, 8 hour, 24 hour after administration. Blood samples were collected through jugular vein puncture. About 0.25 mL blood was collected for each sample. Heparin sodium was used for anticoagulation and the samples were placed on ice after collection. Blood samples were placed on ice after collection, and plasma was separated by centrifugation (centrifugation condition: 8000 rpm, 6 min, 2-8° C.). The collected plasma was stored at −80° C. before analysis.
50 μL plasma sample was added into a 1.5 mL centrifugal tube, and 250 μL internal standard solution (the same volume of methanol was added to blank sample instead of internal standard) was added to the sample. The sample was mixed in a whirlpool and centrifuged for 5 minutes at 14000 rpm. The supernatant of 200 μL was added to 96-well plate for LC-MS/MS analysis.
The pharmacokinetic parameters of the test compounds were calculated using the non-compartment model of WinNonlin v5.2, a software for pharmacokinetic calculation, based on the data of plasma concentration.

A further series has as its target T3, PDE4A1A (Homo sapiens, UniProt P27815).
T3 construct: purchased BPS 60040
As to the kind of experiment: PDE4 activity inhibition assay, PDE4A1A. It counts as biochemical. The note with it: FAM-cAMP substrate, 30 minutes at room temperature.

The mark [2] stands for this setting: po, intragastrical administration 10 mg/kg.
Setting [3] is: po, intragastrical administration 10 mg/kg, read-out: AUC(po).
[4] abbreviates: po, intragastrical administration 10 mg/kg, read-out: T1/2(po) (converted).
The mark [5] stands for this setting: intravenous injection 3 mg/kg, read-out: AUC(iv).
Where [6] appears, read: intravenous injection 3 mg/kg, read-out: T1/2 (IV) (converted).

The structures appear in SMILES notation. Read-outs that look alike come from different tables or passages of the source.

T1 sequence (Q08499 1-673 isoform Q08499-2): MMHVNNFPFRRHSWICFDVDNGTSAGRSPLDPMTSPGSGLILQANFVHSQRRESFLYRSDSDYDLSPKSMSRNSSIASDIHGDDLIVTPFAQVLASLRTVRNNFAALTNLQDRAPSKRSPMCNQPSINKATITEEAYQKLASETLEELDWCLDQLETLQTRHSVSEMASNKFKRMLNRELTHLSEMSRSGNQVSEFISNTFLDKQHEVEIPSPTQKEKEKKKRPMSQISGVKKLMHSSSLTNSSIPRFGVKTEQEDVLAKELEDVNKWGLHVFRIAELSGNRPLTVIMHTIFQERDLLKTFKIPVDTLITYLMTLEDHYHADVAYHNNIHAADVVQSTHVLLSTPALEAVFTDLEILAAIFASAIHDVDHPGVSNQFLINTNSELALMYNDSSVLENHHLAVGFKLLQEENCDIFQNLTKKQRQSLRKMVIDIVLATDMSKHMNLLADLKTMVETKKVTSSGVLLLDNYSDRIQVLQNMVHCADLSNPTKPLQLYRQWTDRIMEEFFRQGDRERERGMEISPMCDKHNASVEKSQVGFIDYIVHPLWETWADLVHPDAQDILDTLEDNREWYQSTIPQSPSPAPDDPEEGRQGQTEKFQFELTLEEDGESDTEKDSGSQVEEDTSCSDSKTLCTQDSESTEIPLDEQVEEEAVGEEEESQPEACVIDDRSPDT
T3 sequence (P27815 1-647 isoform P27815-4): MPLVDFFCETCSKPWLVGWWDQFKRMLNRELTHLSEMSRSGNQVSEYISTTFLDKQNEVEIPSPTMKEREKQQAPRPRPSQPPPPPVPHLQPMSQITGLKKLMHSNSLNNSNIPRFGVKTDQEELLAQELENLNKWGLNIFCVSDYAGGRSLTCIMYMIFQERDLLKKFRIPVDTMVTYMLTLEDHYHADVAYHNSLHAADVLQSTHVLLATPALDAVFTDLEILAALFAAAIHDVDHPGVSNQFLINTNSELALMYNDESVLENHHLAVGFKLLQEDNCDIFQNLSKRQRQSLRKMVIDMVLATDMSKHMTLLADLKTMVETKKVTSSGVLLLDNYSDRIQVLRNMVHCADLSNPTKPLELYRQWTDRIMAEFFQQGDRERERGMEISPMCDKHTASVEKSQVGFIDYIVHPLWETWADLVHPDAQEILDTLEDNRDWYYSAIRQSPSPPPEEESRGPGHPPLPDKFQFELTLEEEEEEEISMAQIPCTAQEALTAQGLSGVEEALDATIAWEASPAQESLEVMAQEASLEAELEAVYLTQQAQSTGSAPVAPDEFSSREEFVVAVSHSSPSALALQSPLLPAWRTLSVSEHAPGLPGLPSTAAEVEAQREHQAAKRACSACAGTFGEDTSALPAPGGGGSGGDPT

On to `CCOc1nc([C@@H](CS(C)(=O)=O)N2C(=O)c3cccc(NC(C)=O)c3C2=O)ccc1OC` [Compound 702, (S)—N-(2-(1-(6-ethoxy-5-methoxypyridin-2-yl)-2-(methylsulfonyl)ethyl)-1,3-dioxoisoindolin-4-yl)acetamide], for which the IC50 on PDE4D3 is 4 nM; against PDE4B1, 4.7 nM; against PDE4A1A it was 2.2 nM. Also, the Tmax in series [1] (setting [2]) came to 40.2 min. In addition, the AUC in series [1] (setting [3]) is 1050 ng·h/mL; in series [1] (setting [5]), 1330 ng·h/mL. Besides, the values for the half-life in series [1] (setting [4]) and in series [1] (setting [6]) were 392 min and 22.8 min, respectively. This molecule registered a F in series [1] of 15.5.

For the molecule `CCOc1nc([C@@H](CS(C)(=O)=O)N2C(=O)c3c(F)ccc(NC(C)=O)c3C2=O)ccc1OC` [Compound 705, (S)—N-(2-(1-(6-ethoxy-5-methoxypyridin-2-yl)-2-(methylsulfonyl)ethyl)-7-fluoro-1,3-dioxoisoindolin-4-yl)acetamide], the IC50 came out at 0.53 nM on PDE4D3, 1.6 nM on PDE4B1 and 0.58 nM on PDE4A1A. For the same molecule, the Tmax in series [1] (setting [2]) came out at 30 min. Also, the exposure (AUC) in series [1] (setting [3]) was determined as 3590 ng·h/mL; in series [1] (setting [5]), 1340 ng·h/mL. Further, the half-life is 555 min in series [1] (setting [4]) and 55.2 min in series [1] (setting [6]). Besides, the F in series [1] is 80.2.

With `CCOc1nc([C@@H](CS(C)(=O)=O)N2C(=O)c3cc(F)cc(NC(C)=O)c3C2=O)ccc1OC` [Compound 708, (S)—N-(2-(1-(6-ethoxy-5-methoxypyridin-2-yl)-2-(methylsulfonyl)ethyl)-6-fluoro-1,3-dioxoisoindolin-4-yl)acetamide], the IC50 was found to be 1.6 nM against PDE4D3, 5.1 nM against PDE4B1 and 3.1 nM against PDE4A1A. For the same molecule, the Tmax in series [1] (setting [2]) is 40.2 min. Also, the AUC in series [1] (setting [3]) turned out to be 51 ng·h/mL; in series [1] (setting [5]), 945 ng·h/mL. Moreover, the results for the half-life in series [1] (setting [4]) and in series [1] (setting [6]) were 253 min and 32.4 min, respectively. Also, the F in series [1] turned out to be 1.62.
